# Source: patent US9260439B2, “Dihydropyrrolopyrimidine derivatives” (PFIZER INC., priority 2014, dated 2016)
# Target: truncated PI3Kα (p110α/iSH2 p85α) (Homo sapiens (Human), UniProt P42336)
# Assay: PI3KA_Act fluorescence polarization kinase assay (Ki)
# Assay type: biochemical
# Details: 1 mM ATP
# Source text: 2) p110α-iSH2 p85α Complex (Full Length p110α and p85α iSH2)(“PI3KA_Act”)
# Genes encoding for full length p110α and p85α nSH-iSH2=niSH2 (p85a aminoacids 322-600) subunits of PI3Kα complex were subcloned from existing constructs into pFASTBAC Dual vector (Life Technologies, Carlsbad, Calif.) using standard cloning procedures. Gene encoding p110α subunit was subcloned into polyhedrine promoter while gene encoding p85α niSH2 domains was subcloned into p10 promoter. Additionally, Human Rhinovirus 3C Protease (“HRV 3C”) site was introduced between nSH2 and iSH2, replacing aminoacids 431-438 of p85α with […] HRV 3C recognition sequence, using standard QuickChange mutagenesis protocol (Agilent Technologies, CA). Recombinant baculovirus was generated using Bac-to-Bac protocol (Life Technologies, Carlsbad, Calif.). Large scale expression was conducted in Sf21 (Life Technologies, Carlsbad, Calif.) cells at a multiplicity of infection (“MOI”)=1 for 48 hours. Cells were lyzed in 50 mM Tris pH 8.0, 250 mM NaCl, 5% glycerol, 0.25 mM TCEP, and 20 mM imidazole. The p110α-niSH2 p85α complex was purified from clarified supernatant using Immobilized Metalo Affinity Chromatography (“IMAC”). The protein was eluted from the column using 50 mM Tris pH 8.0, 200 mM NaCl, 0.25 mM TCEP, and 200 mM imidazole. Following elution p110α-niSH2 p85α complex was dialyzed against 4 liters of 50 mM Tris pH 8.0, 200 mM NaCl, 0.25 mM TCEP, and 40 mM imidazole in the presence of PreScission Protease (1:70 molar ratio of Protease to Protein) and TEV protease (1:40 molar ratio protease to protein) for 16 hours at 4° C. The protein was further purified using reverse IMAC to remove cleaved histidine tag and contaminants captured during initial IMAC purification. The mixture of p110α-iSH2 p85α complex and cleaved nSH2 was recovered in reverse IMAC 40 mM imidazole flow through and 60 mM imidazole wash fractions. Those fractions were pulled together and loaded on Superdex 200 26/60 SEC column equilibrated in 25 mM Tris, pH 8.0, 100 mM NaCl, 2% glycerol, and 2 mM TCEP. Following SEC, chromatography peak fractions containing p110α-iSH2 p85α complex were pulled and concentrated to 4.3 mg/mL. Purity and integrity of the complex was confirmed using LCMS, analytical SEC and SDS-PAGE (sodium dodecyl sulfate polyacrylamide gel electrophoresis) analysis.
# The biochemical assays of kinase activity of full-length PI3Kα (full-length p110α/p85a) or truncated PI3Kα (p110α/iSH2 p85a) were conducted using a fluorescence polarization format similar to the procedure of Yuan J., et al., (2011) “PF-04691502, a Potent and Selective Oral Inhibitor of PI3K and mTOR Kinases with Antitumor Activity”, Mol Cancer Ther. 10, 2189-2199. The enzymatic reactions were conducted in 50 μL volumes in 96-well plates. The reactions contained human recombinant PI3Kα (2 nM full-length p110α/p85α or 0.5 nM p110α/iSH2 p85) and 30 μM phosphatidylinositol 4,5-bisphosphate (“PIP2”) (Cayman Chemical Company, Ann Arbor, Mich.) and were sonicated for 1 minute prior to adding PI3Kα enzyme (PI3KA_Act or PI3KA_FL), DMSO or test compound (12-point 3-fold serial dilution, 3 μM top dose, 2° A) DMSO final concentration), 5 mM MgCl2, 50 mM HEPES pH 7.4, 150 mM NaCl, 1 mM DTT ((2S,3S)-1,4-bis(sulfanyl)butane-2,3-diol), and 0.05% 3-[(3-cholamidopropyl)dimethylammonio]-1-propanesulfonate (“CHAPS”). […] The reactions were incubated for 30 min at room temperature, stopped with EDTA pH 8 (10 mM final concentration). In a detection plate, 15 μL of detector/probe mixture, containing 480 nM GST-Grp1 PH domain protein (University of Dundee, Dundee, UK) and 12 nM carboxytetramethylrhodamine (“TAMRA”)-tagged fluorescent phosphatidylinositol (3,4,5)-triphosphate (“PIP3”) (Echelon Biosciences, Inc., Salt Lake City, Utah) in assay buffer, was mixed with 15 μL of kinase reaction mixture. The plate was shaken for 30 minutes and fluorescence polarization values were measured on an LJL Analyst HT plate reader (Molecular Devices, Sunnyvale, Calif.). […]
# Sequence of truncated PI3Kα (p110α/iSH2 p85α) (P42336 whole entry, the tested form may be a part): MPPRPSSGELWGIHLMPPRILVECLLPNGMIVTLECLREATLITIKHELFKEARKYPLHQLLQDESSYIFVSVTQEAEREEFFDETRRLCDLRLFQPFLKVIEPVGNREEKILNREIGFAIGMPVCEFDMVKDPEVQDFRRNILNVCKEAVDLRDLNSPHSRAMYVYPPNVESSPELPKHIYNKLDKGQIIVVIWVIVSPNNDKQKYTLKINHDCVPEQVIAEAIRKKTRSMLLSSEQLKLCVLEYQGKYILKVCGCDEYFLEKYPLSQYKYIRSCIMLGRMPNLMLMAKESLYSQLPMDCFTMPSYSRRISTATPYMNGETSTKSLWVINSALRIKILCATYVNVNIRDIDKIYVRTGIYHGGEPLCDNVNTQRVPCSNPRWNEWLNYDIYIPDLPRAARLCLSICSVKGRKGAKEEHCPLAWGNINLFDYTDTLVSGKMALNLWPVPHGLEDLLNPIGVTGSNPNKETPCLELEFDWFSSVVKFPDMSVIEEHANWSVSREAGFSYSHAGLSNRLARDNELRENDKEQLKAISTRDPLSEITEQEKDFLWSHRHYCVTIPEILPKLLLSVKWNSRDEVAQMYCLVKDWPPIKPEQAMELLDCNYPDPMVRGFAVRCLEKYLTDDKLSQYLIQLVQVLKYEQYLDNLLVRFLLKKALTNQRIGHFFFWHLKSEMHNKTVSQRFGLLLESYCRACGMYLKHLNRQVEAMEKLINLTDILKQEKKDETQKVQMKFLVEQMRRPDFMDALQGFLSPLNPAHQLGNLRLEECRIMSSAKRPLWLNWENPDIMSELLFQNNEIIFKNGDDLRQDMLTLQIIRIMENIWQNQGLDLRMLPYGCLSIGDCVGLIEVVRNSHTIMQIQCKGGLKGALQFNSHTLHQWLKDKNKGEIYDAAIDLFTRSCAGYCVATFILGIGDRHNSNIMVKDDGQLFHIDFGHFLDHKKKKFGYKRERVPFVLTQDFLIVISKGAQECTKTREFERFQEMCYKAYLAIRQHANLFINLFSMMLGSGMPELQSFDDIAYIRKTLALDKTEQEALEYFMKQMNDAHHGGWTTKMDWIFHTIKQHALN
row,SMILES,PI3KA_Act Ki [nM]
1,Cn1cnc(S(=O)(=O)N2CC(N3CCc4c(-c5cnc(N)nc5)nc(N5CCOCC5)nc43)C2)c1 [Example 179],0.344
2,CP(C)(=O)N1CC[C@@H](N2CCc3c(-c4cnc(N)nc4)nc(N4CCOCC4)nc32)C1 [Example 180],1.759
3,CP(C)(=O)N1CC[C@H](N2CCc3c(-c4cnc(N)nc4)nc(N4CCOCC4)nc32)C1 [Example 181],0.296
4,C[C@H](O)COC(=O)N1CC(N2CCc3c(-c4cnc(N)nc4)nc(N4CCOC[C@@H]4C)nc32)C1 [Example 182],0.357
5,CC(C)(CO)N1CCc2c(-c3cnc(N)nc3)nc(N3CCOCC3)nc21 [Example 183],0.393
6,CCC(C)(C)N1CCc2c(-c3cnc(N)nc3)nc(N3CCOCC3)nc21 [Example 184],0.647
7,C[C@@H](O)COC(=O)N1CC(N2CCc3c(-c4cnc(N)nc4)nc(N4CCOCC4)nc32)C1 [Example 185],0.182
8,C[C@@H](O)COC(=O)N1CC(N2CCc3c(-c4cnc(N)nc4)nc(N4CCOC[C@@H]4C)nc32)C1 [Example 186],0.274
9,CCCC(C)(C)N1CCc2c(-c3cnc(N)nc3)nc(N3CCOCC3)nc21 [Example 187],0.839
10,COCC(C)(C)N1CCc2c(-c3cnc(N)nc3)nc(N3CCOCC3)nc21 [Example 188],0.642
11,CP(C)(=O)N1CC(N2CCc3c(-c4cnc(N)nc4)nc(N4CCOCC4)nc32)C1 [Example 189],1.162
12,CNS(=O)(=O)N1CC(C)(N2CCc3c(-c4cnc(N)nc4)nc(N4CCOCC4)nc32)C1 [Example 190],0.040
13,CC(C)(CNS(C)(=O)=O)N1CCc2c(-c3cnc(N)nc3)nc(N3CCOCC3)nc21 [Example 191],0.881
14,C[C@@]1(N2CCc3c(-c4cnc(N)nc4)nc(N4CCOCC4)nc32)CCN(S(N)(=O)=O)C1 [Example 192],0.053
15,CC(C)(C)OC(=O)N1CC[C@](C)(N2CCc3c(-c4cnc(N)nc4)nc(N4CCOCC4)nc32)C1 [Example 194],<0.018
16,CC(C)(C)OC(=O)N1CC[C@@](C)(N2CCc3c(-c4cnc(N)nc4)nc(N4CCOCC4)nc32)C1 [Example 195],0.166
17,CCS(=O)(=O)N1CC(C)(N2CCc3c(-c4cnc(N)nc4)nc(N4CCOCC4)nc32)C1 [Example 196],0.024
18,CC1(N2CCc3c(-c4cnc(N)nc4)nc(N4CCOCC4)nc32)CN(S(=O)(=O)C2CC2)C1 [Example 197],0.040
19,CC(C)S(=O)(=O)N1CC(C)(N2CCc3c(-c4cnc(N)nc4)nc(N4CCOCC4)nc32)C1 [Example 198],0.024
20,CC1(N2CCc3c(-c4cnc(N)nc4)nc(N4CCOCC4)nc32)CNC1 [Example 199],0.151
21,CCOC(=O)C(C)(C)N1CCc2c(-c3cnc(N)nc3)nc(N3CCOC[C@@H]3C)nc21 [Example 200],0.909
22,COCCC(=O)N1CC(N2CCc3c(-c4cnc(N)nc4)nc(N4CCOC[C@@H]4C)nc32)C1 [Example 202],1.037
23,CCS(=O)(=O)N1CC(C)(N2CCc3c(-c4cnc(N)nc4)nc(N4CCOC[C@@H]4C)nc32)C1 [Example 203],0.032
24,CC(C)S(=O)(=O)N1CC(C)(N2CCc3c(-c4cnc(N)nc4)nc(N4CCOC[C@@H]4C)nc32)C1 [Example 204],<0.018

row,SMILES,PI3KA_Act Ki [nM]
1,C[C@H]1COCCN1c1nc(-c2cnc(N)nc2)c2c(n1)N(C1(C)CN(S(=O)(=O)C3CC3)C1)CC2 [Example 205],0.021
2,C[C@H]1COCCN1c1nc(-c2cnc(N)nc2)c2c(n1)N(C1(C)CN(S(C)(=O)=O)C1)CC2 [Example 206],0.031
3,C[C@H]1COCCN1c1nc(-c2cnc(N)nc2)c2c(n1)N(C1CN(S(=O)(=O)C3CN(C(=O)OC(C)(C)C)C3)C1)CC2 [Example 207],0.100
4,CC1(N2CCc3c(-c4cnc(N)nc4)nc(N4CCOCC4)nc32)CN(S(N)(=O)=O)C1 [Example 208],0.062
5,CC1(N2CCc3c(-c4cnc(N)nc4)nc(N4CCOCC4)nc32)CN(S(C)(=O)=O)C1 [Example 209],0.045
6,CC(=O)NCC(=O)N1CC(N2CCc3c(-c4cnc(N)nc4)nc(N4CCOCC4)nc32)C1 [Example 210],0.898
7,CC(=O)N1CC[C@@](C)(N2CCc3c(-c4cnc(N)nc4)nc(N4CCOCC4)nc32)C1 [Example 211],0.078
8,CC(C)C(=O)NCC(=O)N1CC(N2CCc3c(-c4cnc(N)nc4)nc(N4CCOC[C@@H]4C)nc32)C1 [Example 212],0.534
9,COC(=O)N1CC[C@](C)(N2CCc3c(-c4cnc(N)nc4)nc(N4CCOCC4)nc32)C1 [Example 213],0.030
10,COC(=O)N1CC[C@@](C)(N2CCc3c(-c4cnc(N)nc4)nc(N4CCOCC4)nc32)C1 [Example 214],0.128
11,C[C@@]1(N2CCc3c(-c4cnc(N)nc4)nc(N4CCOCC4)nc32)CCNC1 [Example 215],0.476
12,CNC(=O)N1CC[C@](C)(N2CCc3c(-c4cnc(N)nc4)nc(N4CCOCC4)nc32)C1 [Example 216],0.124
13,CN(CC(C)(C)N1CCc2c(-c3cnc(N)nc3)nc(N3CCOCC3)nc21)S(C)(=O)=O [Example 217],0.191
14,CC(C)C(=O)NCC(=O)N1CC(N2CCc3c(-c4cnc(N)nc4)nc(N4CCOCC4)nc32)C1 [Example 218],0.751
15,C[C@H]1COCCN1c1nc(-c2cnc(N)nc2)c2c(n1)N(C1(C)CN(S(N)(=O)=O)C1)CC2 [Example 219],0.037
16,CNS(=O)(=O)N1CC(C)(N2CCc3c(-c4cnc(N)nc4)nc(N4CCOC[C@@H]4C)nc32)C1 [Example 220],0.053
17,COCCC(=O)N1CC(N2CCc3c(-c4cnc(N)nc4)nc(N4CCOCC4)nc32)C1 [Example 221],1.291
18,C[C@H]1COCCN1c1nc(-c2cnc(N)nc2)c2c(n1)N(C1CN(S(=O)(=O)C3CNC3)C1)CC2 [Example 222],0.101
19,CC(=O)N1CC(S(=O)(=O)N2CC(N3CCc4c(-c5cnc(N)nc5)nc(N5CCOC[C@@H]5C)nc43)C2)C1 [Example 223],0.393
20,CC(C)S(=O)(=O)N1CC(N2CCc3c(-c4cnc(N)nc4)nc(N4CCOC[C@H]4C)nc32)C1 [Example 224],2.296
21,C[C@@H]1COCCN1c1nc(-c2cnc(N)nc2)c2c(n1)N([C@@]1(C)CCNC1)CC2 [Example 225],4.151
22,C[C@@H]1COCCN1c1nc(-c2cnc(N)nc2)c2c(n1)N([C@]1(C)CCNC1)CC2 [Example 226],7.437
23,C[C@@H]1COCCN1c1nc(-c2cnc(N)nc2)c2c(n1)N(C1(C)CCN(C(=O)OC(C)(C)C)C1)CC2 (stereo partly drawn) [Example 228],0.164
24,C[C@@H]1COCCN1c1nc(-c2cnc(N)nc2)c2c(n1)N([C@@]1(C)CCN(C(=O)OC(C)(C)C)C1)CC2 [Example 229],0.055
